The subject of experiment [1] is C. neoformans cdc50Δ mutant strain. It counts as cell-based, Cryptococcus neoformans. The note with it: alone. As to the method: (§1) The assays followed standard CLSI protocol for broth microdilution assays using yeasts.(32) Microbes were passaged in YPD media at 37° C. with mixing for 2 days before harvesting with an inoculation loop to prepare monocultures on Sabouraud Dextrose Agar (SDA) plates. Monocultures on SDA plates were incubated for 2 days at 37° C. before harvesting cells for microdilution assays. RPMI media (100 μL) was charged to each of the 96 wells in a 96 well plate, with an additional 100 μL in the first column. Peptide-DMSO solution (4 μL) at 12.8 mg/mL was charged to each of the wells in the first column. The 100 μL was serially diluted by a factor of 2 from the first column to the 11th column. Microbe inoculant was then prepared. An inoculation loop was used to transfer 1-3 colonies of cells to 1 mL phosphate buffer solution (PBS). The PBS and microbe solution was made uniform by vortex mixing. Cell concentration was computed by comparing the absorbance at 530 nm to 1× McFarland standard solution and multiplying the resulting ratio by 10^7 cell/mL conversion factor. Plate inoculant was prepared by diluting the PBS microbe solution to 5000 cell/mL, in RPMI media. A 100 μL aliquot of cells was transferred to each of the wells on the plate other than column 11 for the no growth control. The operating volume was 200 μL, with 500 CFU per well for a final concentration of 2.5*10^3 cells/mL.

Experiment [2] relates to C. neoformans wild type strain H99. Kind of experiment: microbe, parasite or virus in culture. It counts as cell-based, Cryptococcus neoformans. The note with it: for MIC ug/mL H99: wild-type H99, read at 24 and 48 hours, 37° C.; for MIC ug/mL H99 / MIC: alone; for MIC: against C. neoformans H99 wild type. Here is the method: as §1, with “Peptide-DMSO solution (4 μL) at 12.8 mg/mL was charged to each of the wells in the first column.” left out

The test system is the same in experiment [3]. The note with it: concentration of the peptide in combination with caspofungin; H99.
Method: Microbes were prepared in the same manner as the MIC assay. […] 100 μL of RPMI media was added to the first 8 wells in the first row. […] The 100 μL of media with drug was serially diluted from the first row to the final row. […] Column 11 was the no growth control, and 12 was the no drug control. The plate was inoculated with microbes in the same manner as the MIC assay. Again, 200 uL was the operating volume, 500 CFU per well, 2.5*10^3 cell/mL. Plates were incubated for 48 hours at 37° C. and read thereafter. The Fractional Inhibitory Concentration Index were calculated as follows:
Where the MICA and MICB are the MIC values of drugs A and B alone and FICA and FICB are the Fractional Inhibitory concentrations of drugs A and B in the presence of each other, respectively.
The subject of experiment [4] is C. neoformans cdc50Δ mutant strain. Type of experiment: cell-based, Cryptococcus neoformans. The note with it: for FIC ug/mL ΔCDC50 Peptide: concentration of the peptide in combination with caspofungin; for FIC Index ΔCDC50: peptide with caspofungin, ΔCDC50 (table S1). Here is the method:
The Fractional Inhibitory Concentration Index were calculated as follows: […]

The subject of experiment [5] is C. neoformans cells. The experiment in a line: AF350-Annexin V / propidium iodine flow cytometry assay (exofacial phosphatidylserine). It counts as cell-based, Cryptococcus neoformans. As to conditions: 0.128 mg/mL peptide, 20 minutes at 25° C.; control 0.2±0.1%. As to the method: Stock microbes were defrosted from the −80° C. freezer and were passed twice for 48 hours each in YPD media. The YPD media was removed by spinning down and the supernatant was decanted. Pelletized cells were resuspended in 1 mL PBS media and washed for 5 minutes with incubation at 25° C. and 250 RPM. Washed cells were spun down again and suspended in 1 mL of PBS solution. cells were diluted 20-fold into 1 mL fungal working solution in an eppendorf. Cell concentration was quantified via comparison to 1× McFarlain's standard on a plate reader using the absorbance value at 530 nm. An aliquot of 1*10^6 cells in 100 μL was created (1*10^7 cell/mL). […] The cells were incubated for 20 minutes at 25° C. and 250 RPM. Baseline and experimental samples were prepared in triplicate. Cells were stained using an operating concentration of 0.001 mg/mL Propidium Iodine (PI) and a 40-fold dilution of AlexaFluor 350 labelled annexin V as per manufactures instructions. After staining the cells, samples were spun down and supernatant decanted. Cells were then fixed in 4% formaldehyde for 5 minutes. Fixed cells were spun down and supernatant decanted and resuspended in 400 μL 1% formaldehyde for flowcytometry. Samples were collected at a slow flow rate on a MACS Quant 10 device (Miltenyi Biotech, Auburn, CA) with 20,000 events collected per injection.
It was sought to determine whether the activities of the peptides were related to the lipid-flipping activity of the P4-ATPase. […] The intensity of the AF350-annexin V signal corresponds to concentration of PS on the exofacial side of the membrane. The propidium iodine signal corresponds to cell viability.
Single cells were first selected and gated based on morphology to ensure homogeneity among the cell population (4A, 4B). Cells with low propidium iodine intensity (PI-A<9 RU) and high AF350-annexin V intensity (Annexin V-A>9 RU) (4C, 4D) were examined. Under these gating parameters there should be, respectively, low non-specific cell death and high exofacial PS.
A general note: A flow cytometer gives signals particle by particle.

Converted amounts (≈) assume the structure as drawn. Where a SMILES comes first, the peptide text is derived from it. The star is where a group is joined. Palmitoyl = CCCCCCCCCCCCCCCC(=O)*; Myristoyl = CCCCCCCCCCCCCC(=O)*; Decanoyl = CCCCCCCCCC(=O)*; Hexanoyl = CCCCCC(=O)* Some results are limits rather than exact numbers.

For `CCCCCCCCCC(=O)N[C@@H](CO)C(=O)N[C@@H](CCC(=O)O)C(=O)N[C@@H](CO)C(=O)NCC(=O)N[C@H](C(=O)N[C@@H](C)C(=O)N[C@@H](Cc1c[nH]c2ccccc12)C(=O)NCC(=O)NCC(=O)N[C@H](C(=O)N[C@@H](CCCCN)C(=O)N[C@@H](CCCCN)C(=O)N[C@@H](CC(N)=O)C(=O)N[C@@H](Cc1ccc(O)cc1)C(=O)N[C@@H](C)C(=O)O)[C@@H](C)CC)[C@@H](C)CC` [AS15-Da] (Decanoyl-SESGIAWGGIKKNYA-OH), the “MIC ug/mL ΔCDC50” value in experiment [1] was more than 128 µg/mL. In addition, the “MIC ug/mL H99” value in experiment [2] was more than 128 µg/mL.
For `CCCCCC(=O)N[C@@H](CO)C(=O)N[C@@H](CCC(=O)O)C(=O)N[C@@H](CO)C(=O)NCC(=O)N[C@H](C(=O)N[C@@H](C)C(=O)N[C@@H](Cc1c[nH]c2ccccc12)C(=O)NCC(=O)NCC(=O)N[C@H](C(=O)N[C@@H](CCCCN)C(=O)N[C@@H](CCCCN)C(=O)N[C@@H](CC(N)=O)C(=O)N[C@@H](Cc1ccc(O)cc1)C(=O)N[C@@H](C)C(=O)O)[C@@H](C)CC)[C@@H](C)CC` [AS15-Ha] (Hexanoyl-SESGIAWGGIKKNYA-OH), the “MIC ug/mL ΔCDC50” value in experiment [1] was more than 128 µg/mL. Further, in experiment [2], the “MIC ug/mL H99” value is more than 128 µg/mL.
For `CCCCCCCCCCCCCCCC(=O)N[C@@H](CO)C(=O)N[C@@H](CCC(=O)O)C(=O)N[C@@H](CO)C(=O)NCC(=O)N[C@H](C(=O)N[C@@H](C)C(=O)N[C@@H](Cc1c[nH]c2ccccc12)C(=O)NCC(=O)NCC(=O)N[C@H](C(=O)N[C@@H](CCCCN)C(=O)N[C@@H](CCCCN)C(=O)N[C@@H](CC(N)=O)C(=O)N[C@@H](Cc1ccc(O)cc1)C(=O)N[C@@H](C)C(=O)O)[C@@H](C)CC)[C@@H](C)CC` [AS15-Pa] (Palmitoyl-SESGIAWGGIKKNYA-OH), the “MIC ug/mL ΔCDC50” value in experiment [1] was 128 µg/mL (≈ 70.4 µM). Moreover, the “FIC ug/mL H99 Peptide” value in experiment [3] came to 0.5 µg/mL. Besides, the “MIC ug/mL H99” value in experiment [2] was more than 128 µg/mL. In experiment [4], the “FIC ug/mL ΔCDC50 Peptide” value came to 2 µg/mL and the “FIC Index ΔCDC50” value is 0.53.
In the case of `CCCCCCCCCCCCCCCC(=O)N[C@@H](Cc1c[nH]c2ccccc12)C(=O)NCC(=O)NCC(=O)N[C@H](C(=O)N[C@@H](CCCCN)C(=O)N[C@@H](CCCCN)C(=O)N[C@@H](CC(N)=O)C(=O)N[C@@H](Cc1ccc(O)cc1)C(=O)N[C@@H](C)C(=O)O)[C@@H](C)CC` [AW9-Pa] (Palmitoyl-WGGIKKNYA-OH), the “FIC ug/mL H99 Peptide” value in experiment [3] was found to be 0.5 µg/mL. Moreover, the “FIC ug/mL ΔCDC50 Peptide” value in experiment [4] is 1 µg/mL.
As for `CCCCCCCCCCCCCC(=O)N[C@@H](Cc1c[nH]c2ccccc12)C(=O)NCC(=O)NCC(=O)N[C@H](C(=O)N[C@@H](C)C(=O)N[C@@H](C)C(=O)N[C@@H](CC(N)=O)C(=O)N[C@@H](Cc1ccc(O)cc1)C(=O)N[C@@H](C)C(=O)O)[C@@H](C)CC` [K5A;K6A-Ma] (Myristoyl-WGGIAANYA-OH), the “percentage of cells with low propidium iodine intensity (PI-A<9 RU) and high AF350-annexin V intensity (Annexin V-A>9 RU)” value in experiment [5] was 1.3±0.9%. Besides, the “MIC” value in experiment [2] was more than 128 µg/mL.
For the molecule `CCCCCCCCCCCCCC(=O)N[C@@H](CO)C(=O)NCC(=O)N[C@H](C(=O)N[C@@H](C)C(=O)N[C@@H](Cc1c[nH]c2ccccc12)C(=O)NCC(=O)NCC(=O)N[C@H](C(=O)N[C@@H](CCCCN)C(=O)O)[C@@H](C)CC)[C@@H](C)CC` [KS9-Ma] (Myristoyl-SGIAWGGIK-OH), the “MIC ug/mL ΔCDC50” value in experiment [1] was more than 128 µg/mL. Also, the “MIC ug/mL H99” value in experiment [2] is more than 128 µg/mL.
Turning to `CCCCCCCCCCCCCC(=O)N[C@@H](Cc1c[nH]c2ccccc12)C(=O)NCC(=O)NCC(=O)N[C@H](C(=O)N[C@@H](C)C(=O)N[C@@H](CCCCN)C(=O)N[C@@H](CC(N)=O)C(=O)N[C@@H](Cc1ccc(O)cc1)C(=O)N[C@@H](C)C(=O)O)[C@@H](C)CC` [Peptide K5A-Ma] (Myristoyl-WGGIAKNYA-OH), the “percentage of cells with low propidium iodine intensity (PI-A<9 RU) and high AF350-annexin V intensity (Annexin V-A>9 RU)” value in experiment [5] was 5.6±0.1%. The “MIC” value in experiment [2] is more than 128 µg/mL.
On to `CCCCCCCCCCCCCC(=O)N[C@@H](Cc1c[nH]c2ccccc12)C(=O)NCC(=O)NCC(=O)N[C@H](C(=O)N[C@@H](CCCCN)C(=O)N[C@@H](C)C(=O)N[C@@H](CC(N)=O)C(=O)N[C@@H](Cc1ccc(O)cc1)C(=O)N[C@@H](C)C(=O)O)[C@@H](C)CC` [Peptide K6A-Ma] (Myristoyl-WGGIKANYA-OH), for which the “MIC” value in experiment [2] was more than 128 µg/mL.
Regarding `CCCCCCCCCCCCCC(=O)N[C@@H](Cc1ccc(O)cc1)C(=O)N[C@H](C(=O)N[C@@H](CC(=O)O)C(=O)NCC(=O)N[C@@H](Cc1ccccc1)C(=O)N1CCC[C@H]1C(=O)N[C@@H](CC(N)=O)C(=O)N[C@@H](CC(C)C)C(=O)N[C@@H](CCCNC(=N)N)C(=O)N[C@@H](CCC(=O)O)C(=O)N[C@@H](CC(=O)O)C(=O)N[C@@H](CCC(=O)O)C(=O)N[C@@H](Cc1c[nH]cn1)C(=O)N[C@@H](Cc1ccccc1)C(=O)N[C@@H](CCC(N)=O)C(=O)O)C(C)C` [QY15-Ma] (Myristoyl-YVDGFPNLREDEHFQ-OH), in experiment [1], the “MIC ug/mL ΔCDC50” value turned out to be 128 µg/mL (≈ 61.6 µM). Besides, the “FIC ug/mL H99 Peptide” value in experiment [3] was determined as 0.5 µg/mL. In addition, in experiment [2], the “MIC ug/mL H99” value is more than 128 µg/mL. For the same molecule, in experiment [4], the “FIC ug/mL ΔCDC50 Peptide” value stood at 0.5 µg/mL and the “FIC Index ΔCDC50” value worked out at 0.25.
Take Ac-SESGIAWGGIKKNYA-OH [AS15-Aa]: the “MIC ug/mL ΔCDC50” value in experiment [1] is more than 128 µg/mL. Further, the “MIC ug/mL H99” value in experiment [2] was more than 128 µg/mL.
For H-SESGIAWGGIKKNYA-OH [AS15], the “MIC ug/mL ΔCDC50” value in experiment [1] is 128 µg/mL. Also, the “FIC ug/mL H99 Peptide” value in experiment [3] turned out to be 0.5 µg/mL. Moreover, the “growth in MIC plate wells compared to the no drug control” value in experiment [2] (visual inspection of the MIC plates, H99) was “stronger and more confluent growth”. Moreover, in experiment [2], the “MIC ug/mL H99” value was more than 128 µg/mL. In experiment [4], the “FIC ug/mL ΔCDC50 Peptide” value turned out to be 0.5 µg/mL and the “FIC Index ΔCDC50” value worked out at 0.25.
Turning to H-YVDGFPNLREDEHFQ-OH [QY15], in experiment [1], the “MIC ug/mL ΔCDC50” value is more than 128 µg/mL. Moreover, in experiment [3], the “FIC ug/mL H99 Peptide” value stood at 0.5 µg/mL. Besides, the “MIC ug/mL H99” value in experiment [2] is more than 128 µg/mL. In experiment [4], the “FIC ug/mL ΔCDC50 Peptide” value was determined as 0.5 µg/mL and the “FIC Index ΔCDC50” value is 0.5-1.

(Values after patent publication US11939402B2, “Antifungal peptides, compounds including the same, and methods of use thereof” (priority 2022, dated 2024).)
